Assay [1] concerns the target Casein kinase I isoform gamma-1 (Homo sapiens) (UniProt Q9HCP0). The assay can be described thus: Selectivity interaction (KinomeScan (DiscoverX)) EUB0000229b CSNK1G1. The note with it: at 10 µM.
Assay [2] concerns the target T1, Serine/threonine-protein kinase PLK4 (Homo sapiens) (UniProt O00444).
T1 sequence (whole entry): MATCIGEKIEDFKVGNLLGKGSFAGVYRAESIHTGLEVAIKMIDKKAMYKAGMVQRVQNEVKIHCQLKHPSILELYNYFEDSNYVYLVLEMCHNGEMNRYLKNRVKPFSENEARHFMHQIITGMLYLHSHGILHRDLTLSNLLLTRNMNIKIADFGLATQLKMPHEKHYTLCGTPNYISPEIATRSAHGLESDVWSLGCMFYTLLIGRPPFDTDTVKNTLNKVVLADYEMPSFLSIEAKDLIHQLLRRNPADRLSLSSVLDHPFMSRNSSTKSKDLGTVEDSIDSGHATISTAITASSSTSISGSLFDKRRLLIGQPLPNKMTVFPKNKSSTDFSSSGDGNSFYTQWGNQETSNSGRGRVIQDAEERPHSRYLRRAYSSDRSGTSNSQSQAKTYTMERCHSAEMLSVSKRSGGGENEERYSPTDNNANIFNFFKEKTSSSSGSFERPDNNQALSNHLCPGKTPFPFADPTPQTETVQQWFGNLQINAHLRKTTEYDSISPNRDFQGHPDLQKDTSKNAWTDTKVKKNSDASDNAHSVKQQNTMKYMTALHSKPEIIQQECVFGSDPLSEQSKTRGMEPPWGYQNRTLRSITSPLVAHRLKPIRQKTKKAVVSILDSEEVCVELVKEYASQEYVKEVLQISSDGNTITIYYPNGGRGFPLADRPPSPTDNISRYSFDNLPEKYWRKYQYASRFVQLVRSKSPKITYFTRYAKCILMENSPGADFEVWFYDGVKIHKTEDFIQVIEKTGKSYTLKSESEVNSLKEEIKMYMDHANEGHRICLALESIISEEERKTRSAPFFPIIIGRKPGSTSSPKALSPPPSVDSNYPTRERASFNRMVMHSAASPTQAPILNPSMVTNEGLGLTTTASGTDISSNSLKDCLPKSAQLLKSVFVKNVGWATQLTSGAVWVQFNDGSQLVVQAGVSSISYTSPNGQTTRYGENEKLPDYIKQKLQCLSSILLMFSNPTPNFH
The assay can be described thus: Selectivity interaction (KinomeScan (DiscoverX)) EUB0001619a PLK4. The note with it: at 1 µM.

For assay [3], the target named is T2, Cyclin-G-associated kinase (Homo sapiens) (UniProt O14976).
T2 sequence (whole entry): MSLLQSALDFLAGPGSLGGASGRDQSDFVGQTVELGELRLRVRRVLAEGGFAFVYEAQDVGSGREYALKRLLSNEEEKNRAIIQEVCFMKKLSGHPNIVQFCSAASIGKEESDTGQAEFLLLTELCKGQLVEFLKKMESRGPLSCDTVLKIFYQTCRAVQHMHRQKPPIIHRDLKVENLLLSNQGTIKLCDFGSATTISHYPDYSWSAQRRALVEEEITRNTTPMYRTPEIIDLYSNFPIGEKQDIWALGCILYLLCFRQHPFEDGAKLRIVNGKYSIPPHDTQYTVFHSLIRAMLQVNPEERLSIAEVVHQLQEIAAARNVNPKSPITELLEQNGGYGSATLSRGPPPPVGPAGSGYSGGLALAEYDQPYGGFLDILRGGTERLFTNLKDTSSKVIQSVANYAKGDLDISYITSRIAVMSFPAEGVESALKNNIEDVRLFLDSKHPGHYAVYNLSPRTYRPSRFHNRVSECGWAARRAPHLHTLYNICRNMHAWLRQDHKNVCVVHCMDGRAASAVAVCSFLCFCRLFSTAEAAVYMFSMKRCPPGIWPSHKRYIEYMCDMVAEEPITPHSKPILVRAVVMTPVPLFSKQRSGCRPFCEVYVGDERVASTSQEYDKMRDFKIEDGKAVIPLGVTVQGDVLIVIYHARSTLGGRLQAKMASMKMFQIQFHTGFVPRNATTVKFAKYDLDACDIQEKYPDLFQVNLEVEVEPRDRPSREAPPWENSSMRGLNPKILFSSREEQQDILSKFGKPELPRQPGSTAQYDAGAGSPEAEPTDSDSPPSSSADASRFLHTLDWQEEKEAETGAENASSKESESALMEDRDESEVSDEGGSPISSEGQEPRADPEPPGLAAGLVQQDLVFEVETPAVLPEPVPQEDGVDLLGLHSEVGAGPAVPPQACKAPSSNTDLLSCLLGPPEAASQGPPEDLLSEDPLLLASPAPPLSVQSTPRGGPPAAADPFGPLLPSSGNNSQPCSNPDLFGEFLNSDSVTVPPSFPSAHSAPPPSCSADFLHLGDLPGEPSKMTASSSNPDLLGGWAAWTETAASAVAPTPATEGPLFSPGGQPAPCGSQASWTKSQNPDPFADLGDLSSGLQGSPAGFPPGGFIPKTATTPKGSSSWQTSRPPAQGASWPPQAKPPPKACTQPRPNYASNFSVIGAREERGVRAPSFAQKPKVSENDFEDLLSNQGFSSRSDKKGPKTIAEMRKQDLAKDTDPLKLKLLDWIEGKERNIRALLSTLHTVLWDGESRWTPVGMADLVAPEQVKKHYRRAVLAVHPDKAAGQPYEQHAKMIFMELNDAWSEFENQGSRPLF
As to the kind of experiment: Selectivity interaction (KinomeScan (DiscoverX)) EUB0001049a GAK. The note with it: at 1 µM.

Sequence of Casein kinase I isoform gamma-1 (Homo sapiens) (Q9HCP0 whole entry, looked up, canonical isoform): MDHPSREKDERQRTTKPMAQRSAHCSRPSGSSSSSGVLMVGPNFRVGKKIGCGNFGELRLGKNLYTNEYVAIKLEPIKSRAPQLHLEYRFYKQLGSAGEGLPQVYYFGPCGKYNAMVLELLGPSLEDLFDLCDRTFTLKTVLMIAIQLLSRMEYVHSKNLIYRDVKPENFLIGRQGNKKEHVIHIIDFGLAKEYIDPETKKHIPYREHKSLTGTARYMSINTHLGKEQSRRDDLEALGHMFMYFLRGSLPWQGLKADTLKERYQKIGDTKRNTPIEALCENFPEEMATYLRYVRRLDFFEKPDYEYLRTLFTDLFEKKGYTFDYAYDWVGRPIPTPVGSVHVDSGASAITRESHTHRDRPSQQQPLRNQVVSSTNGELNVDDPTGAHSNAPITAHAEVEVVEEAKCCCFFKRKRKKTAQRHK

The compound `COc1cc(N(C)c2ccnc3ccc(C(F)(F)F)cc23)cc(OC)c1OC` showed a % binding in assay [1] of 76%.

In turn, `N#Cc1cccc(-c2c[nH]c3ncnc(N4CCOCC4)c23)c1` showed a % of control in assay [2] of 33%.

For the compound `COc1cc(Nc2nc(C)cc(-c3cnn4nc(OC)ccc34)n2)cc(C(F)(F)F)c1`, the % of control in assay [3] amounted to 87%.

The values above are taken from ChEMBL document CHEMBL5465560, “Selectivity Literature for EUbOPEN Chemogenomic Library” (2024).
